Test results as given in patent publication US20230263168A1, “COMBINED FUNGICIDAL PREPARATIONS AND METHODS FOR USING THEREOF” (SAVE FOODS LTD., priority 2020, published 2023).

Tested on: Penecillium Digitatum
Test: Example 3, Trials 1-3: decay of inoculated clementine stored at room temp
Type: in vivo, Penecillium Digitatum on Clementine
Experimental: Fruits: Clementine; Inoculum: Penecillium Digitatum 10^5; Inoculation: 24 hours prior to treatment.
Storage: Cartons of fruit from all the treatments were stored for several days at room temp to monitor fruit spoilage and treatment efficacy.

SMILES | % decay (waste) 9 days at room temp (Trial 3, PAA 150 ppm only) | % decay (waste) 12 days at room temp (Trial 1, IMZ 250 ppm, PAA 0, ACIDS 0) | % decay (waste) 9 days at room temp (Trial 2, IMZ 250 ppm, PAA 0, ACIDS 0) | % decay (waste) 9 days at room temp (Trial 2, IMZ 500 ppm, PAA 0, ACIDS 0) | % decay (waste) 9 days at room temp (Trial 3, IMZ 250 ppm, PAA 0, ACIDS 0) | % decay (waste) 9 days at room temp (Trial 3, IMZ 500 ppm, PAA 0, ACIDS 0)
CC(=O)OO [PAA, peracetic acid] | 36% |  |  |  |  | 
C=CCOC(Cn1ccnc1)c1ccc(Cl)cc1Cl (stereo not drawn) [IMZ, imazalil] |  | 55% | 40% | 19% | 35% | 24%
